# Like-named read-outs stand apart in the source and are kept apart here.
# Assays:
# Type in all cases: in vivo
# Botrytis cinerea = assay: Botrytis test (beans)/protective; settings: Table F
# Procedure: (§1) Solvent: 24.5 parts by weight of acetone
# (§2) • 24.5 parts by weight of dimethylacetamide Emulsifier: 1 part by weight of alkylaryl polyglycol ether
# To produce a suitable preparation of active compound, 1 part by weight of active compound is mixed with the stated amounts of solvent and emulsifier, and the concentrate is diluted with water to the desired concentration. To test for protective activity, young plants are sprayed with the preparation of active compound. After the spray coating has dried on, 2 small pieces of agar covered with growth of Botrytis cinerea are placed on each leaf. The inoculated plants are placed in a darkened chamber at 20° C. and a relative atmospheric humidity of 100%. 2 days after the inoculation, the size of the lesions on the leaves is evaluated. 0% means an efficacy which corresponds to that of the control, while an efficacy of 100% means that no disease is observed.
# Sphaerotheca fuliginea = assay: Sphaerotheca test (cucumbers)/protective; settings: Table C; for pest or weed control at 5 ppm: 5 ppm a.i.
# Procedure: as §1, §2
# To produce a suitable preparation of active compound, 1 part by weight of active compound is mixed with the stated amounts of solvent and emulsifier, and the concentrate is diluted with water to the desired concentration. To test for protect activity, young plants are sprayed with the preparation of active compound at the stated rate of application. After the spray coating has dried on, the plants are inoculated with an aqueous spore suspension of Sphaerotheca fuliginea. The plants are then placed in a greenhouse at approximately 23° C. and a relative atmospheric humidity of approximately 70%. The test is evaluated 7 days after the inoculation. 0% means an efficacy which corresponds to that of the control, while an efficacy of 100% means that no disease is observed.
# Alternaria solani = assay: Alternaria test (tomatoes)/protective; settings: Table E; for pest or weed control at 12.5 ppm: 12.5 ppm a.i.
# Procedure: as §1, §2
# (§3) To produce a suitable preparation of active compound, 1 part by weight of active compound is mixed with the stated amounts of solvent and emulsifier, and the concentrate is diluted with water to the desired concentration. To test for protective activity, young plants are sprayed with the preparation of active compound at the stated rate of application. After the spray coating has dried on, the plants are inoculated with an aqueous spore suspension of Alternaria solani. The plants are then placed in an incubation cabinet at approximately 20° C. and a relative atmospheric humidity of 100%. The test is evaluated 3 days after the inoculation. 0% means an efficacy which corresponds to that of the control while an efficacy of 100% means that no disease is observed.
# Venturia inaequalis = assay: Venturia test (apples)/protective; settings: Table D, test 1
# Procedure: as §1, §2
# as §3, with “conidia” for “spore”, “the causal agent of apple scab (Venturia inaequalis) and” for “Alternaria solani. The plants are”, “remain for 1 day” for “placed”, “The plants are then placed in a greenhouse at approximately 21° C. and a relative atmospheric humidity of approximately 90%. The” for “The”, “10” for “3”, “control,” for “control”
# Phytophthora infestans = assay: whole plant or invertebrate; settings: for Efficacy in % found: Table A
# [1] = Botrytis cinerea, 48 h, test 1, 25 ppm a.i., read-out: Efficacy in % found
# [2] = Podosphaera fuliginea, 168 h, test 4, read-out: Efficacy in % found
# [3] = Alternaria solani, 72 h, test 1, read-out: Efficacy in % found
# [4] = Botrytis cinerea, 48 h, test 2, 50 ppm a.i., read-out: Efficacy in % found
compound,measurement,setting,value
"Fc1ccc([C@]2(Cn3cncn3)O[C@H]2c2ccccc2Cl)cc1 (racemic) [(1.12), epoxiconazole]",pest or weed control at 25 ppm,Botrytis cinerea; [1],49%
same,pest or weed control at 0.5 ppm,"Sphaerotheca fuliginea; Podosphaera fuliginea, 168 h, test 1, 0.5 ppm a.i., read-out: Efficacy in % found",30%
"CC(C)(C)C(O)C(Oc1ccc(-c2ccccc2)cc1)n1cncn1 (centres unmarked) [(1.3), bitertanol]",pest or weed control at 5 ppm,Sphaerotheca fuliginea; [2],71%
"CC(C1CC1)C(O)(Cn1cncn1)c1ccc(Cl)cc1 (centres unmarked) [(1.5), cyproconazole]",pest or weed control at 0.5 ppm,"Alternaria solani; Alternaria solani, 72 h, test 2, 0.5 ppm a.i., read-out: Efficacy in % found",0%
"CC1COC(Cn2cncn2)(c2ccc(Oc3ccc(Cl)cc3)cc2Cl)O1 (centres unmarked) [(1.7), difenoconazole]",pest or weed control at 5 ppm,Sphaerotheca fuliginea; [2],38%
"CC1(C(=O)Nc2ccc(O)c(Cl)c2Cl)CCCCC1 [(1.16), fenhexamid]",Efficacy in % found,Venturia inaequalis; 12.5 ppm a.i.,0%
same,pest or weed control at 12.5 ppm,Alternaria solani; [3],0%
"CCCN(CC)CC1COC2(CCC(C(C)(C)C)CC2)O1 (centres unmarked) [(1.46), spiroxamine]",pest or weed control at 100 ppm,"Sphaerotheca fuliginea; Podosphaera fuliginea, 168 h, test 3, 100 ppm a.i., read-out: Efficacy in % found",10%
"CC(C)(C)C(=O)C(Oc1ccc(Cl)cc1)n1cncn1 (centres unmarked) [(1.50), triadimefon]",pest or weed control at 5 ppm,Sphaerotheca fuliginea; [2],19%
"Cn1cc(C(=O)Nc2ccccc2-c2ccccc2C(F)(F)F)c(C(F)(F)F)n1 [(2.26), 1-methyl-3-(trifluoromethyl)-N-[2′-(trifluoromethyl)biphenyl-2-yl]-1H-pyrazole-4-carboxamide]",Efficacy in % found,Venturia inaequalis; 1 ppm a.i.,54%
same,pest or weed control at 25 ppm,Botrytis cinerea; [1],89%
"CO/C=C(/C(=O)OC)c1ccccc1Oc1cc(Oc2ccccc2C#N)ncn1 [(3.2), azoxystrobin]",Efficacy in % found,"Botrytis cinerea; test 1, 25 ppm a.i.",0%
same,Efficacy in % found,"Alternaria solani; test 1, 0.5 ppm a.i.",40%
same,Efficacy in % found,"Phytophthora infestans; test 1, 1 ppm a.i.",23%
"CSC1=N[C@@](C)(c2ccccc2)C(=O)N1Nc1ccccc1 [(3.7), fenamidone]",pest or weed control at 1 ppm,"Phytophthora infestans; Phytophthora infestans, 72 h, read-out: Efficacy in % found, Table A, test 1, 1 ppm a.i.",62%
"CCCCNC(=O)n1c(NC(=O)OC)nc2ccccc21 [(4.1), benomyl]",pest or weed control at 2.5 ppm,"Botrytis cinerea; Botrytis cinerea, 48 h, test 3, 2.5 ppm a.i., read-out: Efficacy in % found",8%
"CCOc1ccc(NC(=O)OC(C)C)cc1OCC [(4.3), diethofencarb]",pest or weed control at 50 ppm,"Botrytis cinerea; Botrytis cinerea, 48 h, test 3, 50 ppm a.i., read-out: Efficacy in % found",29%
"O=C(Nc1ccccc1)N(Cc1ccc(Cl)cc1)C1CCCC1 [(4.6), pencycuron]",pest or weed control at 50 ppm,Botrytis cinerea; [4],0%
"COC(=O)NC(=S)Nc1ccccc1NC(=S)NC(=O)OC [(4.8), thiophanate-methyl]",pest or weed control at 12.5 ppm,"Botrytis cinerea; Botrytis cinerea, 48 h, test 3, 12.5 ppm a.i., read-out: Efficacy in % found",84%
same,pest or weed control at 250 ppm,"Phytophthora infestans; Phytophthora infestans, 72 h, read-out: Efficacy in % found, Table A, test 6, 250 ppm a.i.",29%
"O=C1C2CC=CCC2C(=O)N1SC(Cl)(Cl)Cl (centres unmarked) [(5.3), captan]",pest or weed control at 50 ppm,"Phytophthora infestans; Phytophthora infestans, 72 h, read-out: Efficacy in % found, Table A, test 6, 50 ppm a.i.",60%
"N#Cc1c(Cl)c(Cl)c(Cl)c(C#N)c1Cl [(5.4), chlorothalonil]",pest or weed control at 2.5 ppm,"Phytophthora infestans; Phytophthora infestans, 72 h, read-out: Efficacy in % found, Table A, test 5, 2.5 ppm a.i.",50%
"N#Cc1sc2c(=O)c3ccccc3c(=O)c=2sc1C#N [(5.6), dithianon]",pest or weed control at 25 ppm,"Phytophthora infestans; Phytophthora infestans, 72 h, read-out: Efficacy in % found, Table A, test 6, 25 ppm a.i.",54%
"O=C1c2ccccc2C(=O)N1SC(Cl)(Cl)Cl [(5.9), folpet]",pest or weed control at 50 ppm,"Phytophthora infestans; Phytophthora infestans, 72 h, read-out: Efficacy in % found, Table A, test 3, 50 ppm a.i.",32%
"[Cu+2].[OH-].[OH-] [(5.16), copper hydroxide]",Efficacy in % found,"Phytophthora infestans; test 6, 25 ppm a.i.",43%
"Cc1cc(C)nc(Nc2ccccc2)n1 [(7.7), pyrimethanil]",pest or weed control at 50 ppm,Botrytis cinerea; [4],0%
"CC(C)[C@H](NC(=O)O)C(=O)N[C@H](C)c1nc2ccc(F)cc2s1 [(9.1), benthiavalicarb]",Efficacy in % found,"Phytophthora infestans; test 1, 0.25 ppm a.i.",12%
"COc1ccc(C(=CC(=O)N2CCOCC2)c2ccc(Cl)cc2)cc1OC [(9.2), dimethomorph]",pest or weed control at 0.5 ppm,"Phytophthora infestans; Phytophthora infestans, 72 h, read-out: Efficacy in % found, Table A, test 2, 0.5 ppm a.i.",28%
"Cc1ccc(C(C)NC(=O)[C@@H](NC(=O)OC(C)C)C(C)C)cc1 (some centres unmarked) [(9.4), iprovalicarb]",Efficacy in % found,"Phytophthora infestans; test 7, 1.25 ppm a.i.",42%
"COC(=O)CC(NC(=O)[C@@H](NC(=O)OC(C)C)C(C)C)c1ccc(Cl)cc1 (some centres unmarked) [(9.10), valifenalate]",Efficacy in % found,"Phytophthora infestans; test 2, 0.5 ppm a.i.",58%
"CC(C)NC(=O)N1CC(=O)N(c2cc(Cl)cc(Cl)c2)C1=O [(10.7), iprodione]",pest or weed control at 25 ppm,Botrytis cinerea; [1],0%
same,pest or weed control at 12.5 ppm,Alternaria solani; [3],35%
"COC(=O)C(C)N(C(=O)Cc1ccccc1)c1c(C)cccc1C (centres unmarked) [(12.1), benalaxyl]",pest or weed control at 1 ppm,"Phytophthora infestans; Phytophthora infestans, 72 h, read-out: Efficacy in % found, Table A, test 4, 1 ppm a.i.",26%
"COC(=O)[C@@H](C)N(C(=O)Cc1ccccc1)c1c(C)cccc1C [(12.2), benalaxyl-M (kiralaxyl)]",Efficacy in % found,"Phytophthora infestans; test 4, 1 ppm a.i.",19%
"N#Cc1c[nH]cc1-c1cccc(Cl)c1Cl [(13.1), fenpiclonil]",pest or weed control at 10 ppm,"Botrytis cinerea; Botrytis cinerea, 48 h, test 2, 10 ppm a.i., read-out: Efficacy in % found",0%
"N#Cc1c[nH]cc1-c1cccc2c1OC(F)(F)O2 [(13.2), fludioxonil]",pest or weed control at 5 ppm,"Botrytis cinerea; Botrytis cinerea, 48 h, test 2, 5 ppm a.i., read-out: Efficacy in % found",84%
"Fc1ccc(Oc2ccnc3cc(Cl)cc(Cl)c23)cc1 [(13.3), quinoxyfen]",pest or weed control at 5 ppm,"Sphaerotheca fuliginea; Podosphaera fuliginea, 168 h, test 3, read-out: Efficacy in % found",37%
"CCCCCCCCc1c(CC)nc2ncnn2c1N [(15.1), ametoctradin]",Efficacy in % found,"Phytophthora infestans; test 2, 2.5 ppm a.i.",73%
"O=C(NCc1ncc(C(F)(F)F)cc1Cl)c1c(Cl)cccc1Cl [(15.17), fluopicolide]",Efficacy in % found,"Phytophthora infestans; test 1, 1 ppm a.i.",0%
"CCO[PH](=O)O [(15.20), fosetyl-Al]",Efficacy in % found,"Phytophthora infestans; test 7, 62.5 ppm a.i.",53%
"N#Cc1ccccc1NC(=O)c1snc(Cl)c1Cl [(15.22), isotianil]",Efficacy in % found,"Botrytis cinerea; test 2, 50 ppm a.i.",0%
"COc1cc(C)c(C(=O)c2c(OC)ccc(Br)c2C)c(OC)c1OC [(15.25), metrafenone]",pest or weed control at 10 ppm,"Sphaerotheca fuliginea; Podosphaera fuliginea, 168 h, test 2, 10 ppm a.i., read-out: Efficacy in % found",21%
"COc1ccccc1N1CCS/C1=C(/C#N)Sc1cc(C(F)(F)F)ccc1F [(15.57), flutianil]",Efficacy in % found,"Sphaerotheca fuliginea; test 2, 0.5 ppm a.i.",48%
"CCCCCOC(=O)Nc1cccc(CON=C(c2ccccc2)c2nnnn2C)n1 [(15.66), pentyl {6-[({[(1-methyl-1H-tetrazol-5-yl)(phenyl)methylidene]amino}oxy)-methyl]pyridin-2-yl}carbamate]",pest or weed control at 0.5 ppm,"Phytophthora infestans; Phytophthora infestans, 72 h, read-out: Efficacy in % found, Table A, test 5, 0.5 ppm a.i.",30%
"Cc1cc(C(F)(F)F)nn1CC(=O)N1CCC(c2nc(C3=NO[C@@H](c4c(F)cccc4F)C3)cs2)CC1 [(15.88), 1-(4-{4-[(5R)-5-(2,6-difluorophenyl)-4,5-dihydro-1,2-oxazol-3-yl]-1,3-thiazol-2-yl}piperidin-1-yl)-2-[5-methyl-3-(trifluoromethyl)-1H-pyrazol-1-yl]ethanone]",pest or weed control at 0.025 ppm,"Phytophthora infestans; Phytophthora infestans, 72 h, read-out: Efficacy in % found, Table A, test 5, 0.025 ppm a.i.",50%
mancozeb [(5.19)],Efficacy in % found,"Phytophthora infestans; test 3, 50 ppm a.i.",53%
metalaxyl-M (mefenoxam) [(12.10)],Efficacy in % found,"Phytophthora infestans; test 7, 1.25 ppm a.i.",13%
metiram [(5.21)],Efficacy in % found,"Phytophthora infestans; test 3, 50 ppm a.i.",17%
phosphorous acid and its salts [(15.62)],Efficacy in % found,"Phytophthora infestans; test 6, 500 ppm a.i.",54%
propineb [(5.23)],Efficacy in % found,"Phytophthora infestans; test 6, 50 ppm a.i.",26%

# From US9006139B2, “Active compound combinations” (Bayer Intellectual Property GmbH, priority 2009, dated 2015)
